From ChEMBL document CHEMBL3585263, “Novel Octahydropyrrolo[3,4-c]pyrroles Are Selective Orexin-2 Antagonists: SAR Leading to a Clinical Candidate” (J Med Chem, 2015)

Key:
[1] = target: T1, Orexin receptor type 2 (Homo sapiens, UniProt O43614); assay: Displacement of [3H]EMPA from human OX2 receptor expressed in human PFSK-1 cells; format: cell-based
T1 sequence (O43614 whole entry): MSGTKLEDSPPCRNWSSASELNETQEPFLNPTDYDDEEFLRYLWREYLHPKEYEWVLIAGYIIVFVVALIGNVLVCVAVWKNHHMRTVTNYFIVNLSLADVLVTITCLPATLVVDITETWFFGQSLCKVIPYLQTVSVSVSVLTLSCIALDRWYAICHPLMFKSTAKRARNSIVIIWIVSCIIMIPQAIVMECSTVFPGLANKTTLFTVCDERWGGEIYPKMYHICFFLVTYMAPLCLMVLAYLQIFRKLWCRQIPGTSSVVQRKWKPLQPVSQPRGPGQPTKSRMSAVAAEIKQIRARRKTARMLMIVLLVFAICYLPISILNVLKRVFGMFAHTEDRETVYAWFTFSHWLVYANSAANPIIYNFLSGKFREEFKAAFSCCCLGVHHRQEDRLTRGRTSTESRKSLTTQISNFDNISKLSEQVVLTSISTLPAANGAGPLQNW

[2] = target: T1, Orexin receptor type 2; assay: Binding affinity to human OX2 receptor
[3] = target: T2, Orexin/Hypocretin receptor type 1 (Homo sapiens, UniProt O43613); assay: Binding affinity to human OX1 receptor
T2 sequence (O43613 whole entry): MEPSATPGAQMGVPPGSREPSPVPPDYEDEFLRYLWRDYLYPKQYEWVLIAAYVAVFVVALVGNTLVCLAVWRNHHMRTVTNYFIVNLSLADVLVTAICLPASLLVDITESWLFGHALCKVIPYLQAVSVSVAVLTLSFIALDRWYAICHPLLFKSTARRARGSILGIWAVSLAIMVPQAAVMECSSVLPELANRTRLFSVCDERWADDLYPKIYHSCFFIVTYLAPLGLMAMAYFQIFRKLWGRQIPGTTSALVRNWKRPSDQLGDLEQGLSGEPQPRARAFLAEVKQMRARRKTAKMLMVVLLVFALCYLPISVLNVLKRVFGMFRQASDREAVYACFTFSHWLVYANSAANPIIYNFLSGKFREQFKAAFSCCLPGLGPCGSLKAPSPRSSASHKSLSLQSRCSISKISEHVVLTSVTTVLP

COc1cccc(OC)c1C(=O)N1C[C@@H]2CN(c3nc4ccc(Cl)cc4s3)C[C@@H]2C1 was tested, and the Ki [1] was 1.6 µM, the Ki [2] was 2.2 µM and the Ki [3] was 6.85 µM.
